Experimental data published in US9968592B2, “Dyslipidemia therapeutic agent” (KOWA COMPANY, LTD., priority 2014, dated 2018).

Tested on: Male hamsters (Slc:Syrian)
Test: Effect on LDL-C of hamster, oral administration once per day for two weeks
Type: in vivo
Settings: single administration, vs control (Dunnett)
Text: Male hamsters (6-week-old, Slc:Syrian, Japan SLC, Inc.) were used for an experiment. Blood was collected from the jugular vein under satiation. The hamsters were divided into six groups (N=8) based on TG and TC in plasma and a body weight. For two weeks from the next day, each of a solvent (0.5% methylcellulose aqueous solution: MC), compound A alone, compound B alone, and combination of compound A and compound B was orally administered once per day. For comparison, for two weeks, each of compound C alone and combination of compound A and compound C was orally administered once per day. On the final day of administration of the pharmaceutical agent, blood was collected under fasting conditions for four hours and under isoflurane anesthesia, and LDL-C in plasma was measured using high performance liquid chromatography by a method of Usui et • a1. (Usui S et al. Clin Chem., 46, 63-72, 2000).
Group 2: 0.3 mg/kg of compound A
Group 3: 10 mg/kg of compound B
Group 4: 0.3 mg/kg of compound A and 10 mg/kg of compound B
Group 5: 10 mg/kg of compound C
Group 6: 0.3 mg/kg of compound A and 10 mg/kg of compound C
Results were presented by an average value±standard deviation. Comparison between the control group and each of the pharmaceutical agent administration groups was performed by a multiple comparison test of Dunnett, and a risk rate of less than 5% was determined to have a significant difference.

[1] = 10 mg/kg orally once per day for two weeks

| SMILES | LDL-C in plasma (0.3 mg/kg orally once per day for two weeks) | LDL-C in plasma [1] |
| --- | --- | --- |
| CC[C@@H](Oc1cccc(CN(CCCOc2ccc(OC)cc2)c2nc3ccccc3o2)c1)C(=O)O [compound A, (R)-2-[3-[[N-(benzoxazol-2-yl)-N-3-(4-methoxyphenoxy)propyl]aminomethyl]phenoxy]butyric acid] | a clear influence on LDL-C was not observed | – |
| CCN(C[C@H]1CC[C@H](CC(=O)O)CC1)c1ccc(C(F)(F)F)cc1CN(c1ncc(OCCS(C)(=O)=O)cn1)[C@@H](C)c1cc(C(F)(F)F)cc(C(F)(F)F)c1 [compound B, (S)-trans-{4-[({2-[({1-[3,5-bis(trifluoromethyl)phenyl]ethyl}{5-[2-(methylsulfonyl)ethoxy]pyrimidin-2-yl}amino)methyl]-4-(trifluoromethyl)phenyl}(ethyl)amino)methyl]cyclohexyl} acetic acid] | – | a clear influence on LDL-C was not observed |
| COc1cc(F)c(C(C)C)cc1-c1ccc(C(F)(F)F)cc1CN1C(=O)O[C@H](c2cc(C(F)(F)F)cc(C(F)(F)F)c2)[C@@H]1C [compound C, [4S,5R]-5-[3,5-bis(trifluoromethyl)phenyl]-3-{[4′-fluoro-2′-methoxy-5′-(propan-2-yl)-4-(trifluoromethyl)[1,1′-biphenyl]-2-yl]methyl}-4-methyl-1,3-oxazolidin-2-one, reference compound] | – | a clear influence on LDL-C was not observed |
